What was measured:
[1] = Inhibition of amyloid beta (1 to 40) aggregation assessed as emission of thioflavin T fluorescence at 100 uM in presence of 1,1,1,3,3,3-hexaflouro-2-propanol
[2] = Inhibition of amyloid beta (1 to 40) aggregation assessed as emission of thioflavin T fluorescence in presence of 1,1,1,3,3,3-hexaflouro-2-propanol

Row | inhibition [1] [%] | IC50 [2] [µM] | SMILES
1 | 5 | – | O=C(CNC(=O)CNC(=O)c1cc(O)c(O)c(O)c1)NCc1cccc(CNC(=O)CNC(=O)CNC(=O)c2cc(O)c(O)c(O)c2)c1
2 | 9 | – | O=C(CNC(=O)c1ccccc1)NCc1cccc(CNC(=O)CNC(=O)c2ccccc2)c1
3 | 10 | – | O=C(CNC(=O)CNC(=O)c1ccccc1)NCc1cccc(CNC(=O)CNC(=O)CNC(=O)c2ccccc2)c1
4 | 61 | – | O=C(NCc1cccc(CNC(=O)c2cc(O)c(O)c(O)c2)c1)c1cc(O)c(O)c(O)c1
5 | -3 | – | O=C(CNC(=O)c1ccccc1)NCC(=O)Nc1ccc(Oc2cccc(NC(=O)CNC(=O)CNC(=O)c3ccccc3)c2)cc1
6 | 9 | – | O=C(CNC(=O)CNC(=O)c1cc([N+](=O)[O-])cc([N+](=O)[O-])c1)NCCCNCCCNC(=O)CNC(=O)CNC(=O)c1cc([N+](=O)[O-])cc([N+](=O)[O-])c1
7 | 7 | – | O=C(CNC(=O)c1ccccc1)Nc1ccc(Oc2cccc(NC(=O)CNC(=O)c3ccccc3)c2)cc1
8 | 17 | – | O=C(CNC(=O)C1CCCCC1)NCC(=O)Nc1ccc(Oc2cccc(NC(=O)CNC(=O)CNC(=O)C3CCCCC3)c2)cc1
9 | 15 | – | COc1cc(C(=O)NCC(=O)NCC(=O)NCC(=O)NCc2cccc(CNC(=O)CNC(=O)CNC(=O)CNC(=O)c3cc(OC)c(OC)c(OC)c3)c2)cc(OC)c1OC
10 | 40 | – | COc1cc(C(=O)NCC(=O)NCC(=O)Nc2ccc(Oc3cccc(NC(=O)CNC(=O)CNC(=O)c4cc(OC)c(OC)c(OC)c4)c3)cc2)cc(OC)c1OC
11 | 36 | – | O=C(O)CNC(=O)CNC(=O)CNC(=O)c1cc([N+](=O)[O-])cc([N+](=O)[O-])c1
12 | 13 | – | O=C(CNC(=O)CNC(=O)c1cc([N+](=O)[O-])cc([N+](=O)[O-])c1)NCC(=O)NCc1cccc(CNC(=O)CNC(=O)CNC(=O)CNC(=O)c2cc([N+](=O)[O-])cc([N+](=O)[O-])c2)c1
13 | 44 | – | O=C(CNC(=O)c1cc([N+](=O)[O-])cc([N+](=O)[O-])c1)Nc1ccc(Oc2cccc(NC(=O)CNC(=O)c3cc([N+](=O)[O-])cc([N+](=O)[O-])c3)c2)cc1
14 | 79 | 1.5 | O=C(CNC(=O)c1cc(O)c(O)c(O)c1)Nc1ccc(Oc2cccc(NC(=O)CNC(=O)c3cc(O)c(O)c(O)c3)c2)cc1
15 | 80 | 28 | O=C(CNC(=O)c1cc(O)c(O)c(O)c1)NCC(=O)Nc1ccc(Oc2cccc(NC(=O)CNC(=O)CNC(=O)c3cc(O)c(O)c(O)c3)c2)cc1
16 | 0 | – | Nc1cccc(Oc2ccc(NC(=O)CNC(=O)CNC(=O)c3cc([N+](=O)[O-])cc([N+](=O)[O-])c3)cc2)c1
17 | 0 | – | COc1cc(C(=O)NCCCCC(=O)Nc2ccc(Oc3cccc(NC(=O)CCCCNC(=O)c4cc(OC)c(OC)c(OC)c4)c3)cc2)cc(OC)c1OC

Row | inhibition [1] [%] | IC50 [2] [µM] | SMILES
18 | 4 | – | O=C(CNC(=O)CNC(=O)c1cc([N+](=O)[O-])cc([N+](=O)[O-])c1)NCC(=O)Nc1ccc(Oc2cccc(NC(=O)CNC(=O)CNC(=O)CNC(=O)c3cc([N+](=O)[O-])cc([N+](=O)[O-])c3)c2)cc1
19 | 30 | – | O=C(CNC(=O)c1cc([N+](=O)[O-])cc([N+](=O)[O-])c1)NCC(=O)Nc1ccc(Oc2cccc(NC(=O)CNC(=O)CNC(=O)c3cc([N+](=O)[O-])cc([N+](=O)[O-])c3)c2)cc1
20 | 19 | – | COc1cc(C(=O)NCc2cccc(CNC(=O)c3cc(OC)c(OC)c(OC)c3)c2)cc(OC)c1OC
21 | 28 | – | COc1cc(C(=O)NCC(=O)NCc2cccc(CNC(=O)CNC(=O)c3cc(OC)c(OC)c(OC)c3)c2)cc(OC)c1OC
22 | 4 | – | O=C(CNC(=O)CNC(=O)c1cc(O)c(O)c(O)c1)NCC(=O)NCc1cccc(CNC(=O)CNC(=O)CNC(=O)CNC(=O)c2cc(O)c(O)c(O)c2)c1
23 | 33 | – | O=C(CNC(=O)c1cc([N+](=O)[O-])cc([N+](=O)[O-])c1)NCc1cccc(CNC(=O)CNC(=O)c2cc([N+](=O)[O-])cc([N+](=O)[O-])c2)c1
24 | 20 | – | COc1cc(C(=O)NCC(=O)NCC(=O)NCC(=O)Nc2ccc(Oc3cccc(NC(=O)CNC(=O)CNC(=O)CNC(=O)c4cc(OC)c(OC)c(OC)c4)c3)cc2)cc(OC)c1OC
25 | 19 | – | O=C(CNC(=O)CNC(=O)c1ccccc1)NCC(=O)NCc1cccc(CNC(=O)CNC(=O)CNC(=O)CNC(=O)c2ccccc2)c1
26 | 70 | 12 | O=C(Nc1ccc(Oc2cccc(NC(=O)c3cc(O)c(O)c(O)c3)c2)cc1)c1cc(O)c(O)c(O)c1
27 | 23 | – | O=C(CNC(=O)CNC(=O)c1cc([N+](=O)[O-])cc([N+](=O)[O-])c1)NCc1cccc(CNC(=O)CNC(=O)CNC(=O)c2cc([N+](=O)[O-])cc([N+](=O)[O-])c2)c1
28 | 11 | – | COc1cc(C(=O)NCC(=O)NCC(=O)NCC(=O)O)cc(OC)c1OC
29 | 31 | – | COc1cc(C(=O)NCC(=O)NCC(=O)NCc2cccc(CNC(=O)CNC(=O)CNC(=O)c3cc(OC)c(OC)c(OC)c3)c2)cc(OC)c1OC
30 | 3 | – | O=C(NCc1cccc(CNC(=O)c2ccccc2)c1)c1ccccc1
31 | 39 | – | O=C(CNC(=O)c1cc(O)c(O)c(O)c1)NCc1cccc(CNC(=O)CNC(=O)c2cc(O)c(O)c(O)c2)c1
32 | 9 | – | COc1cc(C(=O)NCC(=O)Nc2ccc(Oc3cccc(NC(=O)CNC(=O)c4cc(OC)c(OC)c(OC)c4)c3)cc2)cc(OC)c1OC
33 | -3 | – | O=C(CNC(=O)CNC(=O)c1ccccc1)NCC(=O)Nc1ccc(Oc2cccc(NC(=O)CNC(=O)CNC(=O)CNC(=O)c3ccccc3)c2)cc1

Row | SMILES | inhibition [1] [%] | IC50 [2] [µM]
34 | O=C(NCc1cccc(CNC(=O)c2cc([N+](=O)[O-])cc([N+](=O)[O-])c2)c1)c1cc([N+](=O)[O-])cc([N+](=O)[O-])c1 | 4 | –
35 | O=c1c(O)c(-c2ccc(O)c(O)c2)oc2cc(O)cc(O)c12 [QUERCETIN] | – | 0.8

Source: ChEMBL document CHEMBL1157205, “Design, synthesis, and biological evaluation of glycine-based molecular tongs as inhibitors of Abeta1-40 aggregation in vitro” (Bioorg Med Chem, 2008)
